Data published in patent publication US12448632B2, “Guanidine degradation enzyme and methods of use” (Alliance for Sustainable Energy, LLC, priority 2020, dated 2025).

What was measured:
Synechococcus 7942 [1] = assay: Cell growth with urea in culture medium; type: cell-based, Synechococcus elongatus PCC 7942; settings: 5 mM urea; nitrate-deprived or nitrate-replete conditions
GD7942 (+sll1077) = assay: Guanidine tolerance test, cell growth; type: cell-based, Synechococcus elongatus PCC 7942
Description: Guanidine tolerance and degradation test. […] For guanidine degradation test, cyanobacterial strains were grown in 10 mL mBG11 free of nitrate while supplemented with 50 mM NaHCO3 and 5 mM or 1 mM guanidine chloride, under constant light of 50 μE m^−2 s^−1 on a rotary shaker at 150 rpm and 30° C. Every day, 1 mL of culture was sampled for reading OD730 and then transferred into an Eppendorf tube and centrifuged at 17000×g at room temperature for 2 min. The supernatants were stored at −20° C. for later analysis of guanidine.

Δsll1077 strain (PB805W) = assay: Growth in nitrate-deprived medium with guanidine; type: cell-based, Synechocystis sp. PCC 6803; settings: guanidine-supplemented (5 mM) versus nitrogen-deprived conditions
Description: (§1) Guanidine tolerance and degradation test. For guanidine tolerance test, cyanobacterial strains were grown in 20 mL mBG11 medium supplemented with 0-1 mM guanidine and 50 mM NaHCO3. For guanidine degradation test, cyanobacterial strains were grown in 10 mL mBG11 free of nitrate while supplemented with 50 mM NaHCO3 and 5 mM or 1 mM guanidine chloride, under constant light of 50 μE m^−2 s^−1 on a rotary shaker at 150 rpm and 30° C. Every day, 1 mL of culture was sampled for reading OD730 and then transferred into an Eppendorf tube and centrifuged at 17000×g at room temperature for 2 min. The supernatants were stored at −20° C. for later analysis of guanidine.

Synechococcus 7942 [2] = type: cell-based, Synechococcus elongatus PCC 7942
Description: as §1

Compound	impact on cell growth (Synechococcus 7942 [1])	cell growth (GD7942 (+sll1077); 1 mM guanidine in culture medium)	cell growth (GD7942 (+sll1077); 2 mM guanidine in culture medium)	cell growth (Δsll1077 strain (PB805W))	guanidine concentration at which cell growth was already inhibited (Synechococcus 7942 [2])
NC(N)=O [urea]	did not show any apparent impact on the cell growth	–	–	–	–
N=C(N)N [guanidine]	–	not apparently repressed	only slightly inhibited	severely inhibited	0.3 mM
